Data as given in patent USRE46604E1, “Treatment of circadian rhythm disorders” (VANDA PHARMACEUTICALS, INC., priority 2012, dated 2017).
Like-named read-outs stand apart in the source and are kept apart here. One block for each molecule: values may come before it.

How the values were obtained:
[1] = Effect of smoking on pharmacokinetics; format: in vivo, human; conditions: for Vd/F: read-out: Vz/F; for half-life: read-out: t½ (converted)
Source text: Smokers were defined as those smoking 10 or more cigarettes per day. Non-smokers were defined as those smoking no cigarettes per day.

tmax as stated in text = conditions: in vivo
MT1R = MT1R (Homo sapiens, UniProt P48039); test: Melatonin receptor MT1R affinity; format: binding
Sequence of MT1R (P48039 whole entry): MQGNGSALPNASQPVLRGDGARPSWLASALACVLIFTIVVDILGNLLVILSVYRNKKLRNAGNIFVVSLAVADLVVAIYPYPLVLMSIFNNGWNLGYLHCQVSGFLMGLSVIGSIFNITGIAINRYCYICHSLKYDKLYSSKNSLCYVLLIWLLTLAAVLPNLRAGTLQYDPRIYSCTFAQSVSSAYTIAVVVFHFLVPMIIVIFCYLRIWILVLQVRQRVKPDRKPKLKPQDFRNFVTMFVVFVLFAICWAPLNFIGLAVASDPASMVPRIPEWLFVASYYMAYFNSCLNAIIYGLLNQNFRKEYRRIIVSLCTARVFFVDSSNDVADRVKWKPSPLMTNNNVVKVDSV

Non-24 patients = test: Entrainment by baseline peak aMT6s and beta blocker status (clinical studies); format: in vivo, humans
Protocol: A useful protocol for estimating tau in candidates for clinical testing for treatment of Non-24, which method can be applied to diagnosis of Non-24 in a given patient, is as follows: • Each subject will undergo four 48-hour urine collection sessions at nominal days 7, 14, 21, and 28. During each session, the start of the session and the time of each void will be recorded. Urine collected over periods of 4 hours (with the first 4 hour collection period of the day beginning at scheduled wake time), or about 8 hours during sleep, will be pooled (the “collection interval”); thus, subjects will have a total of 10 urine collection intervals during each 48-hour period. A study nurse will determine the volume of urine collected during each interval (urine will be transferred to a graduated cylinder) and an aliquot will be assayed for aMT6s. • For each collection interval, the start and end time of the interval will be used to determine the midpoint and duration of the interval. The start time of a given interval is defined as the last void time from the prior 4 hour (or 8 hour) collection interval; the end time of a given interval is defined as the last void time within the collection interval. • The mass of the primary melatonin metabolite (aMT6s) excreted during the interval will be determined as the product of aMT6s concentration and volume of urine. Rate of aMT6s excretion will be determined as the mass of aMT6s excreted divided by the duration of the interval. […] For screening there will be occasions when the 4 different weeks that urine collections are conducted will span a change in the clock time. Therefore, all urine collection times will be automatically translated into local standard time for calculations and then translated back to DST for reporting purposes, if appropriate. • In certain situations, urine collections or their recording will be incomplete. The following procedures will be invoked to address this: • 1. If a subject fails to timestamp a void, no action will be taken if there are multiple voids with timestamps within one interval. • 2. If there is only one void in a collection interval, and the patient cannot recall the time of the void then the entire 48 hour collection period will be excluded from the analysis and the subject will be requested to collect an additional 48 hours of urine after Day 28. It would not be possible to accurately determine to which collection interval the unmarked urine belongs. Consequently, the appropriate assignment of start and stop times to all of the collection intervals would be questionable. • 3. If a void is discarded by the patient but the time of the void is known, duration associated with that void (time of the void minus the time of the previous void) will be subtracted from the total duration associated with that interval. This modified duration will be used to calculate rate of aMT6s excretion. If a discarded sample is either the first or last of the samples in an interval, the midpoint of that interval will be calculated without considering that sample. • 4. If fewer than 4 samples are available for one 48-hour collection session, fitting of the cosine will be compromised (inadequate degrees of freedom). Consequently, acrophase will not be determined if fewer than four samples are available. • For each session, acrophase will be determined by fitting a cosine to the data from that session using unweighted non-linear regression. Fitting will be performed using a non-linear least squares fitting algorithm. The fitting process will estimate phase shift, mesor, and amplitude and their respective standard errors; period of the cosine will be fixed to 24 hours.* • Acrophase will be determined as the phase shift modulus 24 hours. • If acrophase values are available for three or more sessions, tau will be calculated using the following procedure: • 1. Acrophase will be recalculated relative to day 0 (24·start day for each session+acrophase). • 2. […]

[2] = Fluvoxamine co-administration pharmacokinetic study; format: in vivo, human
Protocol: Twenty-four healthy male or female subjects between the ages of 18 and 55 years of age (inclusive) who were non-smokers with a body mass index (BMI) of ≧18 and ≦35 kg/m2 participated in this open-label, single-sequence study conducted at one site. On day 1, subjects were administered 5.667 mg of tasimelteon.

MT2R = target: T1, MT2R (Homo sapiens, UniProt P49286); test: Melatonin receptor MT2R affinity; format: binding
T1 sequence (P49286 1-362): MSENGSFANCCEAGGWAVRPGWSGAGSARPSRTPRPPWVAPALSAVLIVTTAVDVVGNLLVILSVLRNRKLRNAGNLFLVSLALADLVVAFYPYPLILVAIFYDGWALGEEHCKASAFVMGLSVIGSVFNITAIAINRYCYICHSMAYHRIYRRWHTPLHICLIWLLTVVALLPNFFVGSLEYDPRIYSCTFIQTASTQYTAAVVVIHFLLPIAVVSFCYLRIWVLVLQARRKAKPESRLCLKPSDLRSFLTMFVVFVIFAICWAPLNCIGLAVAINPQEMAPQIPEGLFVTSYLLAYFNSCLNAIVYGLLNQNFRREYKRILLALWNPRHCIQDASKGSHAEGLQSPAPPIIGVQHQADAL

[3] = human, in vivo, Smokers (10 or more cigarettes per day)
[4] = both sexes, human, in vivo, Day 1: 5.667 mg tasimelteon alone
[5] = compared to tasimelteon administered alone
[6] = Smokers (10 or more cigarettes per day)

AUC(0-inf) ([1]; human, in vivo, Non-Smokers): 389 ± 429 ng·h/mL
Cmax ([1]; human, in vivo, Non-Smokers): 239 ± 177 ng/mL
Tmax ([1]; human, in vivo, Non-Smokers, read-out: Tmax): 30 min
Vd/F ([1]; human, in vivo, Non-Smokers): 133 ± 83 L
half-life ([1]; human, in vivo, Non-Smokers): 70.8 ± 27.6 min
AUC(0-inf) [1, 3]: 205 ± 152 ng·h/mL
Cmax [1, 3]: 136 ± 59.5 ng/mL
Tmax ([1]; human, in vivo, Smokers (10 or more cigarettes per day), read-out: Tmax): 45 min
Vd/F [1, 3]: 189 ± 94.2 L
half-life [1, 3]: 59.4 ± 10.8 min
Tmax (tmax as stated in text): approximately one-half
Ki (MT1R): 0.3 to 0.4 nM
AUC(0-inf) [2, 4]: 102 ± 61.5 ng·h/mL
Cmax [2, 4]: 68 ± 28.9 ng/mL
Tmax [2, 4]: 30 min
half-life ([2]; both sexes, human, in vivo, Day 1: 5.667 mg tasimelteon alone, read-out: t½ (converted)): 72 ± 13.2 min
increase of AUC0-inf upon co-administration of fluvoxamine [2, 5]: approximately 7 fold
increase of Cmax upon co-administration of fluvoxamine [2, 5]: approximately 2 fold
Ki (MT2R): 0.1 to 0.2 nM
SMILES: CCC(=O)NC[C@@H]1C[C@H]1c1cccc2c1CCO2 (relative stereo) [Tasimelteon, trans-N-[[2-(2,3-dihydrobenzofuran-4-yl)cycloprop-1yl]methyl]propanamide]
Entrained, percent of patients (Non-24 patients; Peak aMT6s <1500 ng/hr): 41%
Non-entrained, percent of patients (Non-24 patients; Peak aMT6s <1500 ng/hr): 59%
Entrained, percent of patients (Non-24 patients; Peak aMT6s <2000 ng/hr): 38%
Non-entrained, percent of patients (Non-24 patients; Peak aMT6s <2000 ng/hr): 62%
Entrained, percent of patients (Non-24 patients; Peak aMT6s ≧1500 ng/hr): 67%
Non-entrained, percent of patients (Non-24 patients; Peak aMT6s ≧1500 ng/hr): 33%
Entrained, percent of patients (Non-24 patients; Peak aMT6s ≧2000 ng/hr): 85%
Non-entrained, percent of patients (Non-24 patients; Peak aMT6s ≧2000 ng/hr): 15%
Entrained, percent of patients (Non-24 patients; Peak aMT6s: All): 51%
Non-entrained, percent of patients (Non-24 patients; Peak aMT6s: All): 49%

AUC (inf) [1, 6]: 526 ± 193 h x ng/mL
Tmax [1, 6]: 60 min
SMILES: CCC(=O)NCC1CC1c1cccc2c1C(O)CO2 (centres unmarked) [M12]

AUC (inf) [1, 6]: 9.45 ± 11.88 h x ng/mL
Tmax [1, 6]: 45 min
SMILES: CCC(=O)NCC1CC1c1cccc2c1C(O)CO2 (centres unmarked) [M14]

Second part, the molecule before the results:

SMILES: CCC(=O)NC[C@@H]1CC1c1cccc(O)c1CCO (some centres unmarked) [M9]
AUC(0-inf) [2, 4]: 44.5 ± 17.2 ng·h/mL

SMILES: CCC(=O)NC[C@@H]1CC1c1cccc(O)c1CC(=O)O (some centres unmarked) [M11]
AUC(0-inf) [2, 4]: 104 ± 30 ng·h/mL
